In ChEMBL document CHEMBL1153942, “Design and efficient synthesis of novel ascorbyl conjugated peptide with high collagen biosynthesis stimulating effects” (Bioorg Med Chem Lett, 2009):
The source made the active and inactive calls. No cut-off for these calls is given here. Residues, ends and D or L forms follow the SMILES beside them. *: point of attachment. X1 = O=C(CCC(=O)*)OCC(O)C1OC(=O)C(O)=C1O; Palmitoyl = CCCCCCCCCCCCCCCC(=O)*

Tests used:
[1] = test system: HDF; assay: Stimulation of collagen biosynthesis in primary cultured neonatal HDF at 1 to 1000 uM after 72 hrs by ELISA in presence of fetal bovine serum; format: functional, cell-based; conditions: Homo sapiens
[2] = Cytotoxicity against HDF at >100 uM; format: cell-based; conditions: human
[3] = test system: HDF; assay: Stimulation of collagen biosynthesis in primary cultured neonatal HDF at 100 uM after 72 hrs by ELISA in presence of fetal bovine serum; format: functional, cell-based; conditions: Homo sapiens
[4] = Stability in rat skin homogenates assessed as compound remain after 6 hrs; format: ADME, tissue-based, Zone of skin; conditions: read-out: Stability
[5] = Stability in rat skin homogenates; format: ADME, tissue-based, Zone of skin; conditions: read-out: Stability

Molecule | Activity [1] | Activity [2] | Activity [3] | remaining at 6 h [4] [%] | half-life [5] [h]
H-KTTKS-OH | inactive | – | – | – | –
CCCCCCCCCCCCCCCC(=O)N[C@@H](CCCCN)C(=O)N[C@H](C(=O)N[C@H](C(=O)N[C@@H](CCCCN)C(=O)N[C@@H](CO)C(=O)O)[C@@H](C)O)[C@@H](C)O (Palmitoyl-KTTKS-OH) | – | Active | Active | – | –
C[C@@H](O)[C@H](NC(=O)[C@H](CCCCN)NC(=O)CCC(=O)OCC(O)C1OC(=O)C(O)=C1O)C(=O)N[C@H](C(=O)N[C@@H](CCCCN)C(=O)N[C@@H](CO)C(=O)O)[C@@H](C)O (some centres not stated) (X1-KTTKS-OH) | Active | – | – | < 10 | > 6
O=C1O[C@H]([C@@H](O)CO)C(O)=C1O | inactive | – | – | – | –
